≈ marks a conversion by molar mass, not a printed value. Like-named read-outs stand apart in the source and are kept apart here.
Legend:
S. aureus strain SA1199B = assay: Checkerboard synergy testing of inhibitors with ciprofloxacin, S. aureus SA1199B; assay type: cell-based; details: combination with ciprofloxacin
Method: (§1) Synergy testing was performed with the strain NA by checkerboard titration in microtiter plates using two-fold serial broth microdilution (Eliopoulus and Moellering Jr., 1996). […] Wells were assessed visually for growth after an 18 h incubation period. The Fractional Inhibitory Concentration (FIC) was calculated for each inhibitor and ethidium combination. The following formulae were used to calculate the FIC index: [drawing 43]
(§2) The inventors have quantitated the effects of the combination of the NorA inhibitors with ciprofloxacin, currently the most widely used fluoroquinolone and the second most prescribed antibiotic. Synergy testing was performed by checkerboard titration as described above for ethidium. […] All five compounds acted in a synergistic manner with ciprofloxacin, having FIC indices <0.5 (see Table 4). The inventors concluded that, similarly to their effects on the bacteriotoxicity of ethidium, each of the tested NorA inhibitors promotes the bacteriotoxicity of ciprofloxacin in a synergistic manner.

S. aureus (SA1199B) = assay: Minimal inhibitor concentration decreasing the ciprofloxacin MIC two fold, S. aureus SA1199B; assay type: cell-based; details: Staphylococcus aureus, read-out: Effectivity IC50* S. Aureus
NA strain = assay: Checkerboard synergy testing of inhibitors with ciprofloxacin, NA strain; assay type: cell-based, B. subtilis; details: combination with ciprofloxacin
Method: as §1, §2

HeLa cell line = assay: Toxicity on HeLa cell line, Cell Titer 96 AQueous MTS-based assay; design: species or system human; details: for Selectivity Index (Toxicity HeLa/Effectivity): HeLa IC50 / S. aureus effectivity IC50; for IC50: Homo sapiens, 72 h, HeLa, read-out: Toxicity HeLa IC50
Method: Here the inventors proposed to test the toxicity of the identified lead compounds on several human cell lines. To date, the inventors have determined the IC50 of the lead compounds for the HeLa cell line, the results of which are presented in Table 6. The toxicity of the compounds at concentrations ranging from 0.7 μg/ml to 100 μμg/ml was determined in a 96 well plate by adding the compounds to cells 24 h after seeding at a density of 10^4 per well. After incubation with the compounds for 3 days the effect on cell growth was determined using the Cell Titer 96 AQueous MTS-based assay (Promega, Madison, Wis.).

[1] = test system: wild type S. aureus SA1199; assay type: cell-based; details: INF inhibitors 5 μg/ml, reserpine 20 μg/ml; for Frequency of emergence of variants resistant to two fold the MIC of ciprofloxacin, Spontaneous: SA1199, ciprofloxacin 1 μg/ml, 48 h; for Frequency of emergence of variants resistant to two fold the MIC of ciprofloxacin, Mutagenized: SA1199 mutagenized with ethylmethane sulfonate; for Fold inhibition of emergence of resistance: ciprofloxacin resistance, SA1199
Method: The effect of the inhibitors on the rate of emergence of in vitro selected single-step ciprofloxacin resistant mutants of wild type S. aureus SA1199 (Kaatz et al., 1990) was determined.
Ciprofloxacin resistance in first step in vitro selected mutants of S. aureus is predominantly due to specific point mutations in the targets of this drug, topoisomerase IV and gyrase (Cambau and Gutman, 1993; Ferrero et al., 1994).

S. pneumoniae (SPC2A) = assay: Minimal inhibitor concentration decreasing the ciprofloxacin MIC two fold, S. pneumoniae SPC2A; assay type: cell-based; details: Streptococcus pneumoniae, read-out: IC50 S. Pneumoniae
strain NA = assay: Checkerboard synergy testing of inhibitors with ethidium, strain NA; assay type: cell-based, B. subtilis; details: for FIC index: combination with ethidium, strain NA, 18 h, synergy = FIC index <0.5
Method: as §1
Synergy was defined as an FIC index of <0.5.

Streptococcus pneumoniae = details: cited from earlier work
[2] = test system: most Gram negative microorganisms; details: cited from earlier work
[3] = test system: most (≧90%) strains of the following microorganisms (Acinetobacter Iwoffi ... Yersinia enterocolitica); details: most (≧90%) strains of listed microorganisms; cited from earlier work
[4] = in vivo; cited from earlier work
NorA = molecular target: T1, NorA (Staphylococcus aureus, UniProt P0A0J7); assay: Screen of DiverSet library for reversing the resistance of B. subtilis strain NA to the NorA substrate ethidium bromide; assay type: cell-based; details: ranking or words
T1 construct: expressed in transfected cells; host or cells: Bacillus subtilis strain NA
T1 sequence (P0A0J7 whole entry): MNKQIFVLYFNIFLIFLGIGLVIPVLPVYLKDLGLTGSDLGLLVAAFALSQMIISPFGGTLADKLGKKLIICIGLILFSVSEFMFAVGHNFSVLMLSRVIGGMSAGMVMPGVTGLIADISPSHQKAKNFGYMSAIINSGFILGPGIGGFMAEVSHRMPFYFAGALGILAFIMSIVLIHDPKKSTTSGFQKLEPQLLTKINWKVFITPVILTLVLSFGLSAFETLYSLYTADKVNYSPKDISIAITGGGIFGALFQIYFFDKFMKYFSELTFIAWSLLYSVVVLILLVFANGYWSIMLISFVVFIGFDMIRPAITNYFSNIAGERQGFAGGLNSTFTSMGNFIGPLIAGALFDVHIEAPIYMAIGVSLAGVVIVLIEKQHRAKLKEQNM
Method: One library for the compounds identified in the present invention is DiverSet™ (ChemBridge Corp., Glenview, Ill.) The screening of this library consisting of 9,600 compounds, has been completed. The chemical library was screened for compounds effective, at concentrations of 20 μg/ml or less, in reversing the resistance of a specially created B. subtilis strain NA to the NorA substrate ethidium bromide. Although the present invention employed NorA as the multidrug transporter in the screening assays it will be understood by one of skill in the art that the compounds identified herein will likely have applicability to other multidrug transporters.
In an exemplary assay, in order to identify a candidate substance as an inhibitor of NorA, the B. subtilis strain NA may be used. […]
The DiverSet™ library of chemical compounds was screened for compounds effective, at concentrations of 20 μg/ml or less, in reversing the resistance of a specially created B. subtilis strain NA to the NorA substrate ethidium bromide. […] These three classes of compounds were evaluated using the activity data provided and the CoMFA fields generated to see if a 3D-QSAR relationship was present.

[5] = test system: most strains of certain other organisms (Gram negative aerobes); details: most strains of listed Gram negative aerobes; cited from earlier work
[6] = test system: Gram-negative and Gram-positive organisms; details: generally, except staphylococci; cited from earlier work
[7] = test system: most strains of the following organisms (Staphylococcus aureus, Staphylococcus epidermidis, various Gram negative bacteria); details: most strains of listed organisms; cited from earlier work
[8] = SPC2A, minimal concentration required to decrease the MIC for ciprofloxacin by two fold, N.A. = not active at 5 μg/ml

Row | Compound | FIC index SA1199B (S. aureus strain SA1199B) | IC50 (S. aureus (SA1199B)) [µg/mL] | FIC index NA (NA strain) | Selectivity Index (Toxicity HeLa/Effectivity) (HeLa cell line) | IC50 (HeLa cell line; 3 days, MTS) [µg/mL] | Frequency of emergence of variants resistant to two fold the MIC of ciprofloxacin, Spontaneous [1] | Frequency of emergence of variants resistant to two fold the MIC of ciprofloxacin, Mutagenized [1] | Fold inhibition of emergence of resistance [1] | FIC index (strain NA) | also measured
1 | O=[N+]([O-])c1ccc2[nH]c(-c3ccccc3)cc2c1 [INF 55] | 0.25 | 1.5 (≈ 6.3 µM) | 0.25 | 27 | 40 (≈ 168 µM) | <5 × 10^−11 | <2.5 × 10^−10 | >50 | 0.08 | IC50 (S. pneumoniae (SPC2A); [8]): 5 µg/mL (≈ 21 µM)
2 | O=C(/C=C/c1ccccc1)Nc1cccc(/C=C/C(=O)c2ccccc2)c1 [INF 240] | 0.28 | 0.8 (≈ 2.26 µM) | 0.12 | 2.5 | 2 (≈ 5.66 µM) | <5 × 10^−11 | <2.5 × 10^−10 | >50 | 0.16 | 
3 | COc1ccccc1NC(=O)Nc1ccc2ccccc2c1 [INF 271] | 0.18 | 1.5 (≈ 5.13 µM) | 0.12 | 12 | 18 (≈ 61.6 µM) | <5 × 10^−11 | <2.5 × 10^−10 | >50 | 0.07 | IC50 (S. pneumoniae (SPC2A); [8]): 2.5 µg/mL (≈ 8.55 µM)
4 | CC1(C)CC(=O)C2=C(C1)c1c(ccc3ccccc13)NC2c1cc(Br)ccc1O (stereo not shown) [INF 277] | 0.28 | 0.8 (≈ 1.78 µM) | 0.15 | 6 |  | <5 × 10^−11 | <2.5 × 10^−10 | >50 | 0.09 | IC50 (HeLa cell line): 5 µg/mL (≈ 11.2 µM); IC50 (S. pneumoniae (SPC2A)): 5 µg/mL (≈ 11.2 µM)
5 | O=c1nc(SCc2ccccc2)[nH]c2c1[C@H](c1ccccc1)c1ccccc1O2 [INF 392] | 0.15 | 0.1 (≈ 0.251 µM) | 0.28 | 450 |  | 5 × 10^−11 | 1 × 10^−9 | 25 | 0.14 | IC50 (HeLa cell line): 45 µg/mL (≈ 113 µM); IC50 (S. pneumoniae (SPC2A)): 2.5 µg/mL (≈ 6.27 µM)
6 | O=C(O)c1cn(C2CC2)c2cc(N3CCNCC3)c(F)cc2c1=O [ciprofloxacin] |  |  |  |  |  |  |  |  |  | MIC90 (Streptococcus pneumoniae): 1 to 2 µg/mL; MIC90 [2]: ~0.1 µg/mL (≈ 0.302 µM); in vitro minimal inhibitory concentrations (MICs) [3]: ≤ 1 µg/mL; achievable tissue concentration [4]: 4 µg/mL
7 | O=c1nc(SCc2ccccc2)[nH]c(O)c1C(c1ccccc1)c1ccccc1 [compound 41] |  |  |  |  |  |  |  |  |  | relative inhibitory activity in the initial screening (NorA): most active lead compound in this category
8 | CCn1cc(C(=O)O)c(=O)c2cc(F)c(N3CCNCC3)nc21 [enoxacin] |  |  |  |  |  |  |  |  |  | in vitro minimum inhibitory concentrations (MICs) [5]: ≤ 2.0 µg/mL
9 | CC[n+]1c(-c2ccccc2)c2cc(N)ccc2c2ccc(N)cc21 [ethidium, ethidium bromide, reference compound] |  |  |  |  |  |  |  |  |  | MIC (strain NA; Bacillus subtilis, read-out: MIC for the strain NA): 40 µg/mL
10 | CCn1cc(C(=O)O)c(=O)c2cc(F)c(N3CCNC(C)C3)c(F)c21 (stereo not shown) [lomefloxacin] |  |  |  |  |  |  |  |  |  | factor by which MBC exceeds MIC [6]: ≤ 2; in vitro MICs [7]: ≤ 2 µg/mL
